Reference: ChEMBL document CHEMBL1201862, “PubChem BioAssay data set” (2004)
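Method: 48-hour compound exposure of cells in 96-well plates, five concentrations, linear interpolation of endpoints. At the GI50, growth is halved.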 Active and inactive are the calls of the source. Rule as the data show it: active = GI50 up to about 1.1 µM and inactive = higher.

Tests used:
Experiment in all cases: inhibition of tumour cell growth, NCI panel, 48 h
HOP-62 = test system: HOP-62
RPMI-8226 = test system: RPMI-8226
NCI-H522 = test system: NCI-H522
DMS-273 = test system: DMS-273
SN12C = test system: SN12C
IGROV-1 = test system: IGROV-1
UACC-62 = test system: UACC-62
OVCAR-4 = test system: OVCAR-4
SK-MEL-28 = test system: SK-MEL-28
SR = test system: SR
786-0 = test system: 786-0
HCC 2998 = test system: HCC 2998
HCT-116 = test system: HCT-116
CAKI-1 = test system: CAKI-1
HOP-92 = test system: HOP-92
XF498 = test system: XF498
M19-MEL = test system: M19-MEL
UO-31 = test system: UO-31
Malme-3M = test system: Malme-3M
SNB-75 = test system: SNB-75
COLO 205 = test system: COLO 205
M14 = test system: M14
A498 = test system: A498
SK-OV-3 = test system: SK-OV-3
HL-60 = test system: HL-60
SF-268 = test system: SF-268
MOLT-4 = test system: MOLT-4
CCRF-CEM = test system: CCRF-CEM
NCI-H23 = test system: NCI-H23
SNB-78 = test system: SNB-78
DLD-1 = test system: DLD-1
NCI-H226 = test system: NCI-H226
SF-539 = test system: SF-539
DMS-114 = test system: DMS-114
LXFL 529 = test system: LXFL 529
SK-MEL-2 = test system: SK-MEL-2
NCI-H460 = test system: NCI-H460
K562 = test system: K562
SF-295 = test system: SF-295
A549 = test system: A549
SW-620 = test system: SW-620
HCT-15 = test system: HCT-15
ACHN = test system: ACHN
OVCAR-8 = test system: OVCAR-8
LOX IMVI = test system: LOX IMVI
SNB-19 = test system: SNB-19
EKVX = test system: EKVX
KM-20L2 = test system: KM-20L2
SK-MEL-5 = test system: SK-MEL-5
OVCAR-3 = test system: OVCAR-3
U-251 = test system: U-251
TK-10 = test system: TK-10
UACC-257 = test system: UACC-257
KM12 = test system: KM12
OVCAR-5 = test system: OVCAR-5
HT-29 = test system: HT-29

In the case of `CCNC1CC(n2cc(C)c(=O)[nH]c2=O)OC1CO` (stereo unspecified), the GI50 (HOP-62) is reported as > 100 µM (inactive), the GI50 (RPMI-8226) is reported as > 100 µM (inactive) and the GI50 (NCI-H522) is reported as > 100 µM (inactive). For the same compound, the GI50 (DMS-273) was > 100 µM (inactive), the GI50 (SN12C) was > 100 µM (inactive) and the GI50 (IGROV-1) was > 100 µM (inactive). For the same compound, the GI50 (UACC-62) was > 100 µM (inactive), the GI50 (OVCAR-4) was > 100 µM (inactive) and the GI50 (SK-MEL-28) was > 100 µM (inactive). The GI50 (SR) was > 100 µM (inactive), the GI50 (786-0) was > 100 µM (inactive) and the GI50 (HCC 2998) was > 100 µM (inactive). The GI50 (HCT-116) was > 100 µM (inactive), the GI50 (CAKI-1) was > 100 µM (inactive) and the GI50 (HOP-92) was > 100 µM (inactive). The GI50 (XF498) was > 100 µM (inactive), the GI50 (M19-MEL) was > 100 µM (inactive) and the GI50 (UO-31) was > 100 µM (inactive). For the same compound, the GI50 (Malme-3M) was > 100 µM (inactive), the GI50 (SNB-75) was > 100 µM (inactive) and the GI50 (COLO 205) was > 100 µM (inactive). The GI50 (M14) was > 100 µM (inactive), the GI50 (A498) was > 100 µM (inactive) and the GI50 (SK-OV-3) was > 100 µM (inactive). For the same compound, the GI50 (HL-60) was > 100 µM (inactive), the GI50 (SF-268) was > 100 µM (inactive) and the GI50 (MOLT-4) was > 100 µM (inactive). For the same compound, the GI50 (CCRF-CEM) was > 100 µM (inactive), the GI50 (NCI-H23) was > 100 µM (inactive) and the GI50 (SNB-78) was > 100 µM (inactive). The GI50 (DLD-1) was > 100 µM (inactive), the GI50 (NCI-H226) was > 100 µM (inactive) and the GI50 (SF-539) was > 100 µM (inactive). The GI50 (DMS-114) was > 100 µM (inactive), the GI50 (LXFL 529) was > 100 µM (inactive) and the GI50 (SK-MEL-2) was > 100 µM (inactive). For the same compound, the GI50 (NCI-H460) was > 100 µM (inactive) and the GI50 (K562) was > 100 µM (inactive).

In the case of `CC(C)C(Sc1nc(-c2ccccc2)c(-c2ccccc2)[nH]1)C(=O)NNC(=S)Nc1ccccc1` (stereo unspecified), the GI50 (HOP-62) is reported as 24.1 µM (inactive), the GI50 (SF-295) is reported as 16 µM (inactive) and the GI50 (RPMI-8226) is reported as 10.9 µM (inactive). For the same compound, the GI50 (A549) was 25.5 µM (inactive), the GI50 (SW-620) was 15.3 µM (inactive) and the GI50 (NCI-H522) was 8.67 µM (inactive). The GI50 (DMS-273) was 17.7 µM (inactive), the GI50 (SN12C) was 17.5 µM (inactive) and the GI50 (IGROV-1) was 18.4 µM (inactive). For the same compound, the GI50 (HCT-15) was 17.9 µM, the GI50 (ACHN) was 25.1 µM (inactive) and the GI50 (UACC-62) was 0.857 µM (active). The GI50 (OVCAR-4) was 22.5 µM (inactive), the GI50 (OVCAR-8) was 21.5 µM (inactive) and the GI50 (SK-MEL-28) was 22.7 µM (inactive). For the same compound, the GI50 (LOX IMVI) was 15.9 µM (inactive), the GI50 (SR) was 5.61 µM (inactive) and the GI50 (786-0) was 18.2 µM (inactive). For the same compound, the GI50 (HCC 2998) was 0.0421 µM (active), the GI50 (SNB-19) was 41.9 µM (inactive) and the GI50 (EKVX) was 23.8 µM (inactive). The GI50 (HCT-116) was 22.9 µM (inactive), the GI50 (KM-20L2) was 18.4 µM (inactive) and the GI50 (SK-MEL-5) was 12.8 µM (inactive). For the same compound, the GI50 (OVCAR-3) was 13.1 µM (inactive), the GI50 (HOP-92) was 15.2 µM (inactive) and the GI50 (XF498) was 18.4 µM (inactive). For the same compound, the GI50 (M19-MEL) was 18.9 µM (inactive), the GI50 (UO-31) was 17.8 µM (inactive) and the GI50 (Malme-3M) was 16.7 µM (inactive). For the same compound, the GI50 (SNB-75) was 19.5 µM (inactive), the GI50 (COLO 205) was 18.5 µM (inactive) and the GI50 (M14) was 16.9 µM (inactive). The GI50 (U-251) was 15 µM (inactive), the GI50 (TK-10) was 29.3 µM (inactive) and the GI50 (A498) was 26 µM (inactive). For the same compound, the GI50 (SK-OV-3) was 21.5 µM (inactive), the GI50 (UACC-257) was 16.9 µM (inactive) and the GI50 (HL-60) was 20.4 µM (inactive). For the same compound, the GI50 (KM12) was 14.7 µM (inactive), the GI50 (SF-268) was 24.5 µM (inactive) and the GI50 (MOLT-4) was 12.1 µM (inactive). For the same compound, the GI50 (CCRF-CEM) was 11.6 µM (inactive), the GI50 (NCI-H23) was 14.8 µM (inactive) and the GI50 (SNB-78) was 25 µM (inactive). For the same compound, the GI50 (DLD-1) was 25.8 µM (inactive), the GI50 (OVCAR-5) was 16.7 µM (inactive) and the GI50 (NCI-H226) was 16.7 µM (inactive). The GI50 (SF-539) was 21.4 µM (inactive), the GI50 (HT-29) was 17.7 µM (inactive) and the GI50 (LXFL 529) was 15.5 µM (inactive). The GI50 (SK-MEL-2) was 19.2 µM (inactive) and the GI50 (NCI-H460) was 17.1 µM (inactive).
